From patent US9987376B2, “Delivery system for delivery of a substance into the oral cavity” (NORINVENT AB, priority 2008, dated 2018)
Where two headings read alike, the source gives them in different places.

Assays:
[1] = rat, in vivo
Experimental: White/white laboratory standard rats were used for the tests. In test group A, the rats were given scopolamine.
The rats were terminated by carbon-dioxide 4 h after centrifugation and the intestinal organs were examined. The presence of scopolamine or citalopram in the rat bodies was detected by spectrophotometrics and digital imaging as described in Goncalves, Diaz and Moses et al.

[2] = test system: headache caused by the red wine; test: relief of red wine headache in voluntary humans; type: in vivo, human; settings: Group A: 40 mg (1/10 of normal oral dose) bonded to a carrier according to the invention
Experimental: A further test was performed on voluntary humans. The test was performed on a group of 19 persons. Each test person was given 2 L of red wine without gender discrimination. The wine was consumed during 3 hours the evening before testing. The following morning the individuals were divided into two groups A and B, respectively. Group A received 40 mg ( 1/10 of a normal orally administered dose) of ibumetine bonded to a carrier according to the invention. Group B where given an empty membrane with only sugar chains and no active substance. Group A felt a total relief of the headache caused by the red wine within 5 minutes, whereas group B felt no relief at all from the bare membrane with sugar chains. Group B where therefore treated with 400 mg ibumetine by conventional oral delivery. Various degrees of relief were noted after 45 min-1 h. The test procedure is diagrammatically illustrated in FIG. 3.

[3] = test system: motion sickness in White/white laboratory standard rats; test: rat centrifuge motion sickness test; type: in vivo
Experimental: In test group A, the rats were given scopolamine.
Group B served as a control and was treated with uncoupled scopolamine and a starch matrix carrier without sugar chains.
The membrane size was 1×1 mm made out of starch. To this the labelled sugar chains were coupled and one membrane was put under the upper lip of each rat.
Three equally calibrated centrifuges were used in the test, one for each group of rats A, B, C. Each centrifuge was placed in a box having an entrance/exit through which the rats could move freely between their cage and the centrifuge box. The rats were first allowed to find their way into the centrifuge box before they were lifted up and placed in the centrifuge.
The rats were subsequently spun in the centrifuges at 3 G during 30 seconds.
After centrifugation, the ability of each group A, B, C to localize the exit in the centrifuge box and to return to the cage as well as general steadiness were observed.

[4] = White/white laboratory standard, 4 h

Compound: CN(C)CCCC1(c2ccc(F)cc2)OCc2cc(C#N)ccc21 (stereo not shown) [citalopram]
- active substance in kidney or liver [1, 4]: over 75%
- active substance in the brain [1, 4]: less than 4%
- active substance in the brain ([1]; 4 h): 99%
- active substance in the kidneys ([1]; 4 h): less than 0.1%
- active substance in the liver ([1]; 4 h): less than 0.2%

Compound: CC(C)Cc1ccc(C(C)C(=O)O)cc1 (stereo not shown) [ibumetine]
- time to total relief of the headache [2]: ≤ 5 min

Compound: CN1[C@@H]2C[C@@H](OC(=O)[C@H](CO)c3ccccc3)C[C@H]1[C@@H]1O[C@@H]12 [scopolamine]
- behaviour / signs of motion sickness after centrifugation ([3]; Group A: 1/10 of a normal dose bound by sugar chains to starch matrix, under upper lip, 3 G, 30 seconds): no change in normal behaviour
- ability to localize the exit in the centrifuge box ([3]; Group A: 1/10 of a normal dose bound by sugar chains to starch matrix, 3 G, 30 seconds): managed to directly locate the exit
- behaviour / signs of motion sickness after centrifugation ([3]; Group B: same amount of uncoupled substance with starch matrix without sugar chains, 3 G, 30 seconds): clear signs of motion sickness
- ability to localize the exit in the centrifuge box ([3]; Group B: uncoupled substance, starch matrix without sugar chains, test period of 1 h): could not find the exit
- active substance in kidney or liver ([1]; White/white laboratory standard): over 75%
- active substance in the kidneys [1]: less than 0.1%
- active substance in the liver [1]: less than 0.2%
